Where two headings read alike, the source gives them in different places.
Assays:
passive Arthus reaction = passive Arthus reaction (bleeding of skin); assay type: in vivo, Male Hartley guinea pig
Description: Male Hartley guinea pig weighing 300 to 400 g was used.
According to the conventional method, Anti-OA (rabbit) was prepared. That is, by using New Zealand strain rabbits having a weight of 2.0 to 2.2 kg, 1 ml of an emulsion comprising 20 mg of OA and Freund complete adjuvant (available from DIFCO LABORATORIES) was subcutaneously injected to back side portion and active sensitization was effected for total 4 times for every two weeks.
After two weeks from the final sensitizing date, blood was gathered from common carotid artery and after separation of antiserum, it was stored under freezing at -20°C by the usage for experiment.
The passive Arthus reaction was effected according to the method of Katayama et al. [S. Katayama, et al., Arzneim.-Forsh., vol. 31, p. […] However, in order to cause sufficient reaction, change were added to a cocentration of OA solution. That is, sensitization was effected by intravenously injecting 1 ml of antiserum stock solution and 30 minutes after, the reaction was caused by intradermally injecting respective 0.05 ml of OA solutions, each containing 0.025 mg and 0.05 mg of OA respectively, to each one portion of an abdominal part and total two portions of guinea pig at which hair was cut at the day before. At this time, a physiological saline solution was intradermal injected simultaneously in the same manner as a blank. […] And, the value was calibrated by the blank to be made as the experimental results.
1, 5 or 20 mg/kg of sodium N-acetylneuraminate, or physiological saline solution (1 mg/kg) as a control was intravenously injected before 30 minutes of antigen-challenge or immediately after sensitization.
Also, Student's t-test was employed for significant test and p < 0.05 was made as statistically significant.

[1] = acute toxicity test, guinea pig; settings: in vivo, iv, 14 days observed, read-out: LD₅₀
Excerpt: (§1) Acute toxicity tests of sodium N-acetylneuraminate against mouse, rat and guinea pig due to oral, subcutaneous injection, intraperitoneal injection, intravenous injection and inhalation were effected as shown below. • (1) Animals to be tested ICR mouse 6 weeks old SD rat 6 weeks old Hartley guinea pig 6 weeks old • (2) Chemicals concentration 20 % (w/v) dissolved in distilled water • (3) Animal number per one level Ten • (4) Terms observed 14 days • (5) Calculation method of LD₅₀ Probit method

[2] = acute toxicity test, mouse; assay type: in vivo; settings: in vivo, male, 14 days observed, read-out: LD₅₀
Excerpt: as §1

ICR mouse = assay: acute toxicity test, mouse; assay type: in vivo; settings: female, 14 days observed
Excerpt: as §1

acute toxicity test, rat = assay type: in vivo; settings: in vivo, male, 14 days observed, read-out: LD₅₀
Excerpt: as §1
(§2) Inhalation is effected by exposing powder to be tested for one hour.

SD rat = assay: acute toxicity test, rat; assay type: in vivo
Excerpt: as §1, §2

[3] = simple acute toxicity test, intravenous injection to mouse; assay type: in vivo, ddy male mouse; settings: mouse, in vivo, observed 7 days, 3 mice, read-out: Final death rate (converted)
Description: (§3) Simple acute toxicity test of the agent to be tested due to intravenous injection to mouse was effected as shown below.
(§4) • (1) Agents to be tested Lithium salt, potassium salt, barium salt and magnesium salt of N-acetylneuraminic acid (all available from MECT Corporation) were used. • (2) Animal for experiment ddy male mouse Weight at initial of the test : 17.7 to 21.1 g Animal number per one level : 3 • (3) Room temperature : 23 ± 1 °C, Humidity : 55 ± 7 % • (4) Administration route : intravenous • (5) Administration method and amount thereof The above agent to be tested was dissolved with a physiological saline solution, and that which is prepared so as to become the administration amount of 0.2 ml per 20 g of mouse weight was injected into a tail vein. An administered amount was made to three levels of 500, 1000 and 2000 mg/kg. • (6) Observation of general condition and death condition Observations of the general condition and presence or absence of death were conducted from immediately after administration to after 7 days.

ddy male mouse = assay: as above; assay type: in vivo; settings: 3 mice; for Final death rate: observed 7 days
Description: as §3, §4

## CC(=O)N[C@H]1[C@H]([C@H](O)[C@H](O)CO)OC(O)(C(=O)[O-])C[C@@H]1O.[Na+] (stereo partly shown)
Passive Arthus reaction; 20 mg/kg intravenously, guinea pig
  bleeding of skin: remarkable
Passive Arthus reaction; 1, 5 or 20 mg/kg intravenously, 30 minutes before antigen challenge, guinea pig, Fig. 1 and Fig. 2
  bleeding of skin: depressed depending on an amount to be used
Passive Arthus reaction; 24 hours after antigen challenge, guinea pig
  inhibiting effect on bleeding of skin: continued even after 24 hours from antigen challenge
[1]
  LD50 at 336 h: > 5000 mg/kg
[2]; ip, i.p.
  LD50 at 336 h: > 5000 mg/kg
[2]; iv, i.v.
  LD50 at 336 h: > 5000 mg/kg
[2]; po, p.o.
  LD50 at 336 h: > 5000 mg/kg
[2]; sc, s.c.
  LD50 at 336 h: > 5000 mg/kg
ICR mouse; i.p.
  LD₅₀: >5,000 mg/kg
ICR mouse; i.v.
  LD₅₀: >5,000 mg/kg
ICR mouse; p.o.
  LD₅₀: >5,000 mg/kg
ICR mouse; s.c.
  LD₅₀: >5,000 mg/kg
Acute toxicity test, rat; ip, i.p.
  LD50 at 336 h: > 5000 mg/kg
Acute toxicity test, rat; iv, i.v.
  LD50 at 336 h: > 5000 mg/kg
Acute toxicity test, rat; po, p.o.
  LD50 at 336 h: > 5000 mg/kg
Acute toxicity test, rat; sc, s.c.
  LD50 at 336 h: > 5000 mg/kg
SD rat; female, i.p., 14 days observed
  LD₅₀: >5,000 mg/kg
SD rat; female, i.v., 14 days observed
  LD₅₀: >5,000 mg/kg
SD rat; female, inhalation, powder exposure for one hour
  LD₅₀: >4,000 mg/m³
SD rat; female, p.o., 14 days observed
  LD₅₀: >5,000 mg/kg
SD rat; female, s.c., 14 days observed
  LD₅₀: >5,000 mg/kg
SD rat; male, inhalation, powder exposure for one hour
  LD₅₀: >4,000 mg/m³

## CC(=O)NC1C(O)CC(O)(C(=O)O)OC1C(O)C(O)CO (stereo not shown) [Barium N-acetylneuraminate]
[3]; 500 mg/kg intravenous
  mortality at 168 h: 100%

## CC(=O)N[C@H]1[C@H]([C@H](O)[C@H](O)CO)OC(O)(C(=O)[O-])C[C@@H]1O.[Li+] (stereo partly shown) [Lithium N-acetylneuraminate]
Ddy male mouse; 500 mg/kg intravenous, 1 hrs
  Died number with a lapse of time: 0
Ddy male mouse; 500 mg/kg intravenous, 3 hrs
  Died number with a lapse of time: 0
Ddy male mouse; 500 mg/kg intravenous, 6 hrs
  Died number with a lapse of time: 0
Ddy male mouse; 500 mg/kg intravenous, 24 hrs
  Died number with a lapse of time: 0
Ddy male mouse; 500 mg/kg intravenous, 2 days
  Died number with a lapse of time: 0
Ddy male mouse; 500 mg/kg intravenous, 3 days
  Died number with a lapse of time: 0
Ddy male mouse; 500 mg/kg intravenous, 4 days
  Died number with a lapse of time: 0
Ddy male mouse; 500 mg/kg intravenous, 5 days
  Died number with a lapse of time: 0
Ddy male mouse; 500 mg/kg intravenous, 6 days
  Died number with a lapse of time: 0
Ddy male mouse; 500 mg/kg intravenous, 7 days
  Died number with a lapse of time: 0
Ddy male mouse; 500 mg/kg intravenous
  Final death rate: 0/3
Ddy male mouse; 1000 mg/kg intravenous, 1 hrs
  Died number with a lapse of time: 0
Ddy male mouse; 1000 mg/kg intravenous, 3 hrs
  Died number with a lapse of time: 0
Ddy male mouse; 1000 mg/kg intravenous, 6 hrs
  Died number with a lapse of time: 0
Ddy male mouse; 1000 mg/kg intravenous, 24 hrs
  Died number with a lapse of time: 0
Ddy male mouse; 1000 mg/kg intravenous, 2 days
  Died number with a lapse of time: 0
Ddy male mouse; 1000 mg/kg intravenous, 3 days
  Died number with a lapse of time: 0
Ddy male mouse; 1000 mg/kg intravenous, 4 days
  Died number with a lapse of time: 0
Ddy male mouse; 1000 mg/kg intravenous, 5 days
  Died number with a lapse of time: 0
Ddy male mouse; 1000 mg/kg intravenous, 6 days
  Died number with a lapse of time: 0
Ddy male mouse; 1000 mg/kg intravenous, 7 days
  Died number with a lapse of time: 0
Ddy male mouse; 1000 mg/kg intravenous
  Final death rate: 0/3
Ddy male mouse; 2000 mg/kg intravenous, 1 hrs
  Died number with a lapse of time: 0
Ddy male mouse; 2000 mg/kg intravenous, 3 hrs
  Died number with a lapse of time: 0
Ddy male mouse; 2000 mg/kg intravenous, 6 hrs
  Died number with a lapse of time: 0
Ddy male mouse; 2000 mg/kg intravenous, 24 hrs
  Died number with a lapse of time: 0
Ddy male mouse; 2000 mg/kg intravenous, 2 days
  Died number with a lapse of time: 0
Ddy male mouse; 2000 mg/kg intravenous, 3 days
  Died number with a lapse of time: 0
Ddy male mouse; 2000 mg/kg intravenous, 4 days
  Died number with a lapse of time: 0
Ddy male mouse; 2000 mg/kg intravenous, 5 days
  Died number with a lapse of time: 0
Ddy male mouse; 2000 mg/kg intravenous, 6 days
  Died number with a lapse of time: 0
Ddy male mouse; 2000 mg/kg intravenous, 7 days
  Died number with a lapse of time: 0
Ddy male mouse; 2000 mg/kg intravenous
  Final death rate: 0/3

## CC(=O)NC1C(O)CC(O)(C(=O)O)OC1C(O)C(O)CO (stereo not shown) [Magnesium N-acetylneuraminate]
[3]; 1000 mg/kg intravenous
  mortality at 168 h: 100%
[3]; 2000 mg/kg intravenous
  mortality at 168 h: 100%

## CC(=O)N[C@H]1[C@H]([C@H](O)[C@H](O)CO)OC(O)(C(=O)O)C[C@@H]1O (stereo partly shown) [N-acetylneuraminic acid]
Passive Arthus reaction; general statement, in vivo
  inhibiting effect to Arthus reaction: has inhibiting effect to Arthus reaction

## CC(=O)N[C@H]1[C@H]([C@H](O)[C@H](O)CO)OC(O)(C(=O)[O-])C[C@@H]1O.[K+] (stereo partly shown) [Potassium N-acetylneuraminate]
[3]; 1000 mg/kg intravenous
  mortality at 168 h: 100%
[3]; 2000 mg/kg intravenous
  mortality at 168 h: 100%
Ddy male mouse; 500 mg/kg intravenous, 1 hrs
  Died number with a lapse of time: 0
Ddy male mouse; 500 mg/kg intravenous, 3 hrs
  Died number with a lapse of time: 0
Ddy male mouse; 500 mg/kg intravenous, 6 hrs
  Died number with a lapse of time: 0
Ddy male mouse; 500 mg/kg intravenous, 24 hrs
  Died number with a lapse of time: 0
Ddy male mouse; 500 mg/kg intravenous, 2 days
  Died number with a lapse of time: 0
Ddy male mouse; 500 mg/kg intravenous, 3 days
  Died number with a lapse of time: 0
Ddy male mouse; 500 mg/kg intravenous, 4 days
  Died number with a lapse of time: 0
Ddy male mouse; 500 mg/kg intravenous, 5 days
  Died number with a lapse of time: 0
Ddy male mouse; 500 mg/kg intravenous, 6 days
  Died number with a lapse of time: 0
Ddy male mouse; 500 mg/kg intravenous, 7 days
  Died number with a lapse of time: 0
Ddy male mouse; 500 mg/kg intravenous
  Final death rate: 0/3
Ddy male mouse; 1000 mg/kg intravenous, 1 hrs
  Died number with a lapse of time: 3
Ddy male mouse; 1000 mg/kg intravenous, 3 hrs
  Died number with a lapse of time: 0
Ddy male mouse; 1000 mg/kg intravenous, 6 hrs
  Died number with a lapse of time: 0
Ddy male mouse; 1000 mg/kg intravenous, 24 hrs
  Died number with a lapse of time: 0
Ddy male mouse; 1000 mg/kg intravenous, 2 days
  Died number with a lapse of time: 0
Ddy male mouse; 1000 mg/kg intravenous, 3 days
  Died number with a lapse of time: 0
Ddy male mouse; 1000 mg/kg intravenous, 4 days
  Died number with a lapse of time: 0
Ddy male mouse; 1000 mg/kg intravenous, 5 days
  Died number with a lapse of time: 0
Ddy male mouse; 1000 mg/kg intravenous, 6 days
  Died number with a lapse of time: 0
Ddy male mouse; 1000 mg/kg intravenous, 7 days
  Died number with a lapse of time: 0
Ddy male mouse; 1000 mg/kg intravenous
  Final death rate: 3/3
Ddy male mouse; 2000 mg/kg intravenous, 1 hrs
  Died number with a lapse of time: 3
Ddy male mouse; 2000 mg/kg intravenous, 3 hrs
  Died number with a lapse of time: 0
Ddy male mouse; 2000 mg/kg intravenous, 6 hrs
  Died number with a lapse of time: 0
Ddy male mouse; 2000 mg/kg intravenous, 24 hrs
  Died number with a lapse of time: 0
Ddy male mouse; 2000 mg/kg intravenous, 2 days
  Died number with a lapse of time: 0
Ddy male mouse; 2000 mg/kg intravenous, 3 days
  Died number with a lapse of time: 0
Ddy male mouse; 2000 mg/kg intravenous, 4 days
  Died number with a lapse of time: 0
Ddy male mouse; 2000 mg/kg intravenous, 5 days
  Died number with a lapse of time: 0
Ddy male mouse; 2000 mg/kg intravenous, 6 days
  Died number with a lapse of time: 0
Ddy male mouse; 2000 mg/kg intravenous, 7 days
  Died number with a lapse of time: 0
Ddy male mouse; 2000 mg/kg intravenous
  Final death rate: 3/3

— patent EP0386657A1, “Preparation for treating systemic lupus erythematosus” (MECT CORPORATION, priority 1989, dated 1990)
